What was measured:
[1] = test system: colony forming abilities of bone marrow cells (CFU-c); assay: Restorative effect on suppressed colony forming abilities of bone marrow cells in immunodeficient hosts (mitomycin C-treated mice); type: in vivo, BDF1 mice; conditions: mitomycin C 1 mg/kg for 2 days, day 9, n = 7-9, **P < 0.01
Protocol: Restorative effect on suppressed colony forming abilities of bone marrow cells in immunodeficient hosts: BDF1 mice (female, 8 weeks aged) were obtained from Shizuoka Agricultural Cooperative Association for Laboratory Animal, Hamamatsu, Japan. The mice were intraperitoneally injected with mitomycin C (1 mg/kg) every day for 2 days and FR-900490 was also administered to mice intraperitoneally every day for 5 days. At 9th day after first administration of mitomycin C, mice were sacrificed and the colony forming abilities of bone marrow cells (CFU-c) were measured. The schedule of the above test is shown below. [drawing 6] Femoral marrow was harvested from mice by flushing the bone cavity with α-Minimum Essential Medium (α-MEM) supplemented with penicillin G (100 units/ml), streptomycin (100 μg/ml) and 5% fetal bovine serum (FBS). The bone marrow cells were pelleted by centrifugation (500×g, 10 minutes) and resuspended in enriched α-MEM. Mononuclear cells were counted in a hemocytometer and the cells were diluted to 1 ×10^5 cells/ml. Then, 1 ml of bone marrow cells, 1 ml of FBS, 2 ml of 2.2% methyl cellulose in α-MEM and 1 ml of L-929 cell conditioned medium were added to a sterilized tube and mixed by use of automatic mixer. One ml of mixture was plated in 35 mm plastic petri dish and incubated for 7 days in a fully humidified atmosphere of 5% CO2 in air. Triplicate plates were prepared for each experiment. Colonies composed of 50 or more cells were scored on an inverted microscope.

[2] = test system: B-16 melanoma; assay: Inhibitory activity for tumor metastasis; type: in vivo, BDF1 mice; conditions: 14th day after B-16 melanoma injection, n = 10, **P < 0.01
Protocol: Inhibitory activity for tumor metastasis
B-16 Melanoma cells were grown in a Roswel park memorial Institute (RPMI)-1640 medium supplemented with penicillin G (100 units/ml), streptomycin (100 μg/ml) and 10% FBS to subsconfiluency, and the monolayers were rinsed with an aqueous solution of trypsin. Hanks' balanced salt (HBS) solution (Ca-Mg-free) containing the antibiotics described above was added to the monolayers and the monolayer was dislodged by gentle pipetting, and the cells were washed with HBS solution containing the antibiotics described above by centrifugation. The cells were resuspended in HBS solution containing the antibiotics described above and kept at cold temperature. BDF1 mice (female, 8 weeks aged) were injected intravenously with 2×10^5 cells of B-16 melanoma in 0.2 ml of HBS solution containing the antibiotics described above. FR-900490 was intraperitoneally administered once a day at one day and two days before and at one day and four days after the injection of B-16 melanoma. At 14th day after injection of B-16 melanoma, the mice were killed, and the lungs were removed, rinsed in distilled water containing heparin and the number of tumor foci was determined by counting the surface colonies under a dissecting microscope.
The schedule of the above test is shown. [drawing 7]

[3] = test system: direct plaque forming cells (PFC-SRBC); assay: Restorative effect on suppressed antibody forming abilities in immunodeficient hosts; type: in vivo, BDF1 mice
Protocol: Restorative Effect on Suppressed Antibody Forming Abilities in Immunodeficient Hosts
BDF1 mice (female, 8 weeks aged) were injected intraperitoneally with Mitomycin C (1 mg/kg) from four days before immunization with 5×10^8 Sheep Red Blood Cells (SRBC), every day for three days. Test samples also were administered to mice intraperitoneally from four days before immunization, every day for five days. At day 9, mice were sacrificed and the number of direct plaque forming cells per spleen (PFC-SRBC/spleen) was measured by using Cunningham modification method.
The schedule of the above test is shown. [drawing 8]

[4] = Solubility; type: physicochemical

C[C@@H](N[C@@H](Cc1c[nH]cn1)C(=O)O)[C@H](NC(=O)[C@@H](N)CC(N)=O)C(=O)O [FR-900490, (2S,3R)-2-[[(2S)-2-amino-3-carbamoylpropionyl]amino]-3-[[(1S)-1-carboxy-2-(4-imidazolyl)ethyl]amino]butyric acid]
CFU-c (mean ± SE) ([1]; 1 mg/kg i.p. every day for 5 days): 59.3 ± 2.86 | CFU-c (mean ± SE) ([1]; 10 mg/kg i.p. every day for 5 days): 70.4 ± 6.9 | CFU-c (mean ± SE) ([1]; 100 mg/kg i.p. every day for 5 days): 57.2 ± 2.51 | No. of colonies on the lung mean ± SE ([2]; 1 mg/kg i.p.): 39.7 ± 6.4 | No. of colonies on the lung mean ± SE ([2]; 10 mg/kg i.p.): 23.4 ± 3.3 | No. of colonies on the lung mean ± SE ([2]; 100 mg/kg i.p.): 77.9 ± 27.4 | PFC-SRBC/spleen (average number of 5 mice/group) ([3]; 3 mg/kg i.p., mitomycin C-treated): 14.96 × 10^4 PFC-SRBC/spleen | PFC-SRBC/spleen (average number of 5 mice/group) ([3]; 10 mg/kg i.p., mitomycin C-treated): 17.49 × 10^4 PFC-SRBC/spleen | PFC-SRBC/spleen (average number of 5 mice/group) ([3]; 30 mg/kg i.p., mitomycin C-treated): 16.30 × 10^4 PFC-SRBC/spleen | PFC-SRBC/spleen (average number of 5 mice/group) ([3]; 100 mg/kg i.p., animals not administered mitomycin C): 16.83 × 10^4 PFC-SRBC/spleen | PFC-SRBC/spleen (average number of 5 mice/group) ([3]; 100 mg/kg i.p., mitomycin C-treated): 21.12 × 10^4 PFC-SRBC/spleen | Solubility ([4]; Ethyl acetate): Insoluble | Solubility ([4]; Methanol): Sparingly soluble | Solubility ([4]; Water): Soluble | Solubility ([4]; acetone): Insoluble | Solubility ([4]; chloroform): Insoluble | Solubility ([4]; ethanol): Sparingly soluble

From patent US4743614A, “Amino acid derivatives and processes for preparation thereof” (Fujisawa Pharmaceutical Co., Ltd., priority 1985, dated 1988)
